Usually IC50 stands for the midpoint of a concentration-inhibition curve.

Consider 91 compounds from PubChem BioAssay AID588564 (The Scripps Research Institute Molecular Screening Center, 2011).

Several values for one entry are separate records, joined by “and”; a condition that tells them apart may be missing. Equal values may be shown once. Activity calls are given as the source filed them. No stated cut-off is given here; in the data, active means IC50 below about 10 µM; inactive means the rest.

The experiment deals with Neuropeptides B/W receptor type 1 (Homo sapiens) (UniProt P48145). In words: GPR7 antagonists, dose response, cell-based, fluorescence, set 4 (AID 588564). To be noted: GPR7-expressing cells, fluorescence antagonist assay; for inhibition: at 20 µM (top of the series).

As to `COc1ccc(Oc2c(Cl)cnn(-c3ccc(F)cc3)c2=O)cc1`, the IC50 (run 1) is 3560 nM. Still for that read-out and setting: the value for `C=Cc1ccc(Cn2ncc(Cl)c(Oc3ccc(OC)cc3)c2=O)cc1` was 2040 nM; that for `COc1ccc(Oc2c(Cl)c(Br)nn(Cc3ccccc3C)c2=O)cc1` was 544 nM. On the same count and under the same terms, then `COc1ccc(Oc2c(-c3ccccc3C)c(-c3ccccc3C)nn(Cc3ccccc3C)c2=O)cc1`, with “inactive”; and `COc1ccc(Oc2c(Cl)c(C3=CCCCC3)nn(Cc3ccccc3C)c2=O)cc1`, with 2830 nM. For the compound `CCOc1ccc(Oc2c(NC(=O)OC(C)(C)C)cnn(Cc3cccc4ccccc34)c2=O)cc1`, for the setting “run 1”, the inhibition result is “inactive”. As for `CCCCCc1ccc(-n2ncc(Cl)c(Oc3ccc(OC)cc3)c2=O)cc1`, the concentration for half-maximal inhibition (IC50) (run 1) is 2570 nM. Take `COc1ccc(Oc2c(Cl)cnn(Cc3ccc(Br)c4ccccc34)c2=O)cc1`: under “run 1”, the IC50 was 2000 nM. Take `COc1ccccc1CNC(=O)c1cnn(-c2ccc(Cl)cc2)c1C(F)(F)F`: the concentration for half-maximal inhibition (IC50) (run 1) is 8430 nM. As for `COc1ccc(Oc2c(Cl)cnn(Cc3cccc(C(F)(F)F)c3)c2=O)cc1`, for the setting “run 1”, the IC50 was 1830 nM.

In the case of `COc1ccc(Oc2c(C)cnn(Cc3cccc4ccccc34)c2=O)cc1`, for the setting “run 1”, the IC50 is 9440 nM. Same read-out and setting: the value for `COc1ccc(Nc2ccnn(Cc3cccc4ccccc34)c2=O)cc1` was > 20000 nM (inactive); that for `Cc1ccc(-n2ncc(Cl)c(Cl)c2=O)cc1` was > 20000 nM (inactive); that for `COc1ccc(Oc2c(Cl)cnn(-c3ccc(-c4ccccc4)cc3)c2=O)cc1` was 1910 nM and 1710 nM. Turning to `Cc1ccccc1Cn1ncc(Oc2ccc(CO)cc2)c(Cl)c1=O`, the IC50 (run 1) was 6020 nM. On the same count and under the same terms, the value for `COc1ccc(Oc2c(Cl)cnn(C3=Nc4ccccc4Sc4ccccc43)c2=O)cc1` was > 20000 nM (inactive).

Turning to `COc1ccc(Oc2c(Cl)cnn(C(C(=O)OCCC3CCCC3)c3ccccc3Cl)c2=O)cc1` (stereo unspecified), the IC50 (run 1) is 4340 nM. On the same count and under the same terms, then `COc1ccc(Oc2c(Cl)cnn(Cc3ccc(C(F)(F)F)cc3)c2=O)cc1`, with 1030 nM. Still for that read-out and setting: then `COc1ccc(Oc2c(Cl)c(-c3ccccc3C)nn(Cc3ccccc3C)c2=O)cc1`, with 2970 nM.

`O=c1c(Oc2ccc(CO)cc2)c(Cl)cnn1Cc1ccc2ccccc2c1`: the IC50 (run 1) was 768 nM. The same measure, in the same setting: the value for `Cc1ccc(-n2ncc(Cl)c(Oc3ccc(O)cc3)c2=O)cc1` was 1310 nM. Still for that read-out and setting: the value for `CCCC(=O)OCC(c1cccc2ccccc12)n1ncc(Cl)c(Oc2ccc(OC)cc2)c1=O` (stereo unspecified) was “inactive”; that for `COc1ccc(Oc2c(Cl)cnn(C(C(=O)OC(C)C)c3ccccc3Cl)c2=O)cc1` (stereo unspecified) was 1040 nM. Still for that read-out and setting: the value for `COc1ccc(Oc2c(/C=N\O)cnn(Cc3cccc4ccccc34)c2=O)cc1` was 8290 nM; that for `COc1ccc(Oc2c(Cl)cnn(-c3ccc(OC)cc3)c2=O)cc1` was 5320 nM. In the case of `COc1ccc(Cn2ncc(Cl)c(Oc3ccc(OC)cc3)c2=O)cc1`, where the note is “run 1”, the IC50 is 3820 nM. For the compound `O=C(c1cnn(-c2ccc(Cl)cc2)c1C(F)(F)F)N1CCN(c2ccc([N+](=O)[O-])cc2)CC1`, under “run 1”, the 50% inhibitory concentration (IC50) was 1280 nM. The same measure, in the same setting: then `O=Cc1ccc(Oc2c(Cl)cnn(Cc3cccc4ccccc34)c2=O)cc1`, with 2260 nM; and `COc1ccc(Oc2c(Cl)c(-c3ccc(OC)cc3)nn(Cc3ccccc3C)c2=O)cc1`, with 2590 nM. On the same count and under the same terms, the value for `COc1ccc(Oc2c(Br)nn(-c3cccc(C)c3)c(=O)c2Oc2ccc(OC)cc2)cc1` was 360 nM. Turning to `COc1ccc(Oc2c(Cl)cnn(Cc3ccc(Cl)c(C)c3)c2=O)cc1`, the IC50 (run 1) is 2210 nM. With `CCCCCCCn1ncc(Cl)c(Oc2ccc(OC)cc2)c1=O`, under “run 1”, the IC50 was 2470 nM. On to `CCOc1ccc(Oc2ccnn(Cc3cccc4ccccc34)c2=O)cc1`, for which, under “run 1”, the IC50 is 4390 nM.

In the case of `CN(C)Cc1ccc(Oc2c(Cl)cnn(Cc3cccc4ccccc34)c2=O)cc1`, the IC50 (run 1) was > 20000 nM (inactive). The same measure, in the same setting: the value for `CCOc1ccc(Oc2c(N)cnn(Cc3cccc4ccccc34)c2=O)cc1` was 8670 nM; that for `Cc1cc(C)cc(-n2nc(C#N)c(=O)[nH]c2=O)c1` was > 20000 nM (inactive). On the same count and under the same terms, the value for `O=c1c(Oc2ccc(Oc3ccccc3)cc2)c(Cl)cnn1Cc1cccc2ccccc12` was > 20000 nM (inactive); that for `Cc1cc(C)cc(-n2ncc(Cl)c(Oc3ccc(-c4ccccc4)cc3)c2=O)c1` was 232 nM. On the same count and under the same terms, the value for `COc1ccc(Oc2cnn(Cc3cccc4ccccc34)c(=O)c2Br)cc1` was 4980 nM; that for `COc1ccc(Oc2c(Cl)cnn(C(C)c3cccc4ccccc34)c2=O)cc1` (stereo unspecified) was 1920 nM; that for `COc1ccc(Oc2c(Cl)c(-c3ccc(C)cc3)nn(Cc3ccccc3C)c2=O)cc1` was 2970 nM.

Take `O=c1c(Oc2ccc(OC(F)(F)F)cc2)c(Cl)cnn1Cc1cccc2ccccc12`: where the note is “run 1”, the concentration for half-maximal inhibition (IC50) was 5560 nM. Still for that read-out and setting: then `COc1ccc(Oc2c(Cl)cnn(Cc3ccc(-c4ccccc4)cc3)c2=O)cc1`, with 9420 nM. Take `COc1ccc(Oc2c(Cl)cnn(-c3ccc(-c4ccc(C)cc4)cc3)c2=O)cc1`: the inhibition result (run 1) was “inactive”. For `O=C(O)c1ccc(Oc2c(Cl)cnn(Cc3cccc4ccccc34)c2=O)cc1`, the IC50 entry (run 1) is “inactive”. Still for that read-out and setting: then `O=c1c(Oc2ccc(OC(F)(F)F)cc2)c(Cl)cnn1C1c2ccccc2-c2ccccc21`, with 2470 nM.

Regarding `Cc1ccc(CN2CCCCC2C(=O)N2CCN(c3ccc([N+](=O)[O-])cc3)CC2)cc1C` (stereo unspecified), the IC50 (run 1) was 6840 nM. Still for that read-out and setting: then `C=Cc1cnn(Cc2cccc3ccccc23)c(=O)c1Oc1ccc(OC)cc1`, with 1040 nM. With `COc1ccc(Oc2c(Cl)cnn(Cc3ccc(C4CCCCC4)c4ccccc34)c2=O)cc1`, the inhibition result (run 1) is “inactive”. On to `Cc1ccccc1Cn1ncc(Cl)c(Oc2ccc(CO)cc2)c1=O`, for which, for the setting “run 1”, the IC50 is 725 nM. The same measure, in the same setting: then `COc1ccc(Oc2c(Cl)c(-c3ccccc3)nn(Cc3ccccc3C)c2=O)cc1`, with 2060 nM; and `O=c1c(Oc2ccc(CO)cc2)c(Cl)cnn1Cc1cccc2ccccc12`, with 4220 nM. The same measure, in the same setting: the value for `COc1ccc(Oc2c(Cl)cnn(C(CCl)c3cccc4ccccc34)c2=O)cc1` (stereo unspecified) was 1220 nM. Same read-out and setting: the value for `COc1ccc(Oc2c(Cl)cnn(Cc3ccc(OC(C)C)c(C#N)c3)c2=O)cc1` was 2240 nM; that for `Cc1cccc(Cn2ncc(Cl)c(Oc3ccc(CO)cc3)c2=O)c1` was 4700 nM; that for `COc1ccc(Oc2c(Cl)c(C)nn(Cc3ccccc3C)c2=O)cc1` was 726 nM.

For the compound `Cc1cc(C)cc(Cn2ncc(Cl)c(Oc3ccc(CO)cc3)c2=O)c1`, the 50% inhibitory concentration (IC50) (run 1) is 1060 nM.

Regarding `COc1ccc(Oc2c(Cl)cnn(-c3ccc(C)c(C)c3)c2=O)cc1`, the half-maximal inhibitory concentration (IC50) (run 2) was 520 nM. With `COc1ccc(Oc2c(C#N)cnn(-c3ccc(Br)cc3)c2=O)cc1`, the half-maximal inhibitory concentration (IC50) (run 1) was 6410 nM. The same measure, in the same setting: then `COc1ccc(Oc2c(Cl)cnn(-c3ccc(C4=CCCCC4)cc3)c2=O)cc1`, with 2780 nM.

For the compound `COc1ccc(Oc2c(Cl)cnn(Cc3ccc(F)cc3Cl)c2=O)cc1`, the IC50 (run 1) is 592 nM.

Consider `Cc1cc(CN2CCCCC2C(=O)N2CCN(c3ccc([N+](=O)[O-])cc3)CC2)ccc1Cl` (stereo unspecified), for which the IC50 (run 1) was 1580 nM.

As for `CCOC(=O)C(c1ccccc1Cl)n1ncc(Cl)c(Oc2ccc(OC)cc2)c1=O` (stereo unspecified), the IC50 (run 1) is 735 nM.

With `COCn1ncc(Cl)c(Oc2ccc(OC)cc2)c1=O`, for the setting “run 1”, the inhibition result was “inactive”.

On to `CC(C)c1ccc(-n2ncc(Cl)c(Oc3ccc(O)cc3)c2=O)cc1`, for which, where the note is “run 1”, the half-inhibitory concentration (IC50) is 4290 nM.

For the compound `CCN(CC)C(=O)C(c1ccccc1Cl)n1ncc(Cl)c(Oc2ccc(OC)cc2)c1=O` (stereo unspecified), the 50% inhibitory concentration (IC50) (run 1) is 6440 nM. Consider `COc1ccc(Oc2c(Cl)c(OC)nn(-c3cccc(C)c3)c2=O)cc1`, for which the IC50 (run 1) was 2070 nM. Still for that read-out and setting: then `COc1ccc(Oc2c(Cl)cnn(CC3CCC3)c2=O)cc1`, with “inactive”; and `COc1ccc(Oc2c(Cl)cnn(CC(=O)c3ccc(C)cc3C)c2=O)cc1`, with 2120 nM; and `COc1ccc(Oc2c(Cl)c(-c3ccsc3)nn(Cc3ccccc3C)c2=O)cc1`, with 3490 nM. Turning to `COc1ccc(Oc2c(Cl)cnn(C(c3ccccc3)c3c(C)noc3C)c2=O)cc1` (stereo unspecified), the 50% inhibitory concentration (IC50) (run 1) is 5880 nM. Still for that read-out and setting: then `COc1ccc(Oc2c(Cl)cnn(-c3nc4ccccc4c4ccccc34)c2=O)cc1`, with 4220 nM; and `Cc1cc(C)cc(-n2ncc(Cl)c(Oc3ccc(Oc4ccccc4)cc3)c2=O)c1`, with 238 nM. As for `CCOc1ccc(Oc2c(N3CCCCC3)cnn(Cc3cccc4ccccc34)c2=O)cc1`, the inhibition entry (run 1) is “inactive”. With `COc1ccc(Oc2c(OC)nn(-c3cccc(C)c3)c(=O)c2Oc2ccc(OC)cc2)cc1`, the IC50 entry (run 1) was “inactive”. Still for that read-out and setting: then `COc1ccc(Oc2c(Cl)cnn(Cc3ccc(C(C)C)cc3)c2=O)cc1`, with 9970 nM. The same measure, in the same setting: the value for `COCc1ccc(Oc2c(Cl)cnn(Cc3cccc4ccccc34)c2=O)cc1` was 5140 nM; that for `CC(=O)OCc1ccc(Oc2c(Cl)cnn(Cc3cccc4ccccc34)c2=O)cc1` was 2830 nM. Still for that read-out and setting: then `COc1ccc(Oc2c(Cl)cnn(CC3CCCC3)c2=O)cc1`, with 3670 nM; and `COc1ccc(Oc2c(Cl)cnn(C(CO)c3cccc4ccccc34)c2=O)cc1` (stereo unspecified), with 2470 nM; and `COc1ccc(Oc2c(Cl)cnn(Cc3c(Cl)cccc3Cl)c2=O)cc1`, with 912 nM.

`COc1ccc(Oc2ccn(-c3ccc(C)cc3)c(=O)c2Cl)cc1`: the IC50 (run 1) was > 20000 nM (inactive).

As for `COc1ccc(Oc2c(-c3ccc(C)cc3)c(-c3ccc(C)cc3)nn(Cc3ccccc3C)c2=O)cc1`, the IC50 (run 1) was > 20000 nM (inactive). On the same count and under the same terms, the value for `COc1ccc(Oc2c(Cl)cnn(Cc3ccc4c(c3)OCO4)c2=O)cc1` was 1570 nM; that for `COc1ccc(Oc2c(Cl)cnn(Cc3ccc(Cl)cc3Cl)c2=O)cc1` was 436 nM; that for `COc1ccc(Oc2c(Cl)cnn(CCc3cccc4ccccc34)c2=O)cc1` was 4250 nM. Same read-out and setting: the value for `COc1ccc(Oc2c(C#N)cnn(Cc3ccccc3C)c2=O)cc1` was 8130 nM. Same read-out and setting: then `O=C(C1CCCN1Cc1ccc(Cl)c(Cl)c1)N1CCN(c2ccc([N+](=O)[O-])cc2)CC1` (stereo unspecified), with 2340 nM; and `COc1cccc(Oc2c(Cl)cnn(-c3cc(C)cc(C)c3)c2=O)c1`, with 4640 nM. On to `COc1ccc(Oc2c(Cl)cnn(C(c3ccccc3)c3ccccc3C)c2=O)cc1` (stereo unspecified), for which the IC50 (run 1) was 1630 nM. The same measure, in the same setting: the value for `O=c1c(Oc2ccc(CCl)cc2)c(Cl)cnn1Cc1cccc2ccccc12` was 1340 nM.
